Measured values as given in PubChem BioAssay AID256 (DTP/NCI, 2004).
Toxic doses and inconclusive results are not listed. The calls were made as follows: active = survival T/C of 150% or more; inactive = T/C below 125% in these data.

Tested on: CD2F1 mice, L1210 leukemia ip, survival T/C
Assay: NCI In Vivo Anticancer Drug Screen. Data for tumor model L1210 Leukemia (intraperitoneal) in CD2F1 (CDF1) mice
Details: endpoint: mean survival time, higher = longer survival
Outline: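 Mice carrying a transplanted tumor received test compound or vehicle alone. The value is the measurement in the treated group divided by that in the vehicle-treated control group.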

[1] = dose: 50.0 mg/kg/injection, schedule: Q01DX009 (ip), vehicle: saline
[2] = dose: 100.0 mg/kg/injection, schedule: Q01DX009 (ip), vehicle: saline
[3] = dose: 100.0 mg/kg/injection, schedule: Q04DX003 (ip), vehicle: saline
[4] = dose: 200.0 mg/kg/injection, schedule: Q04DX003 (ip), vehicle: saline
[5] = dose: 400.0 mg/kg/injection, schedule: Q04DX003 (ip), vehicle: saline
[6] = dose: 100.0 mg/kg/injection, schedule: Q04DX003 (ip), vehicle: saline with Tween-80
[7] = dose: 50.0 mg/kg/injection, schedule: Q01DX009 (ip), vehicle: saline with Tween-80
[8] = dose: 100.0 mg/kg/injection, schedule: Q01DX009 (ip), vehicle: saline with Tween-80
[9] = dose: 200.0 mg/kg/injection, schedule: Q01DX009 (ip), vehicle: saline with Tween-80
[10] = dose: 25.0 mg/kg/injection, schedule: Q01DX009 (ip), vehicle: saline with Tween-80
[11] = dose: 100.0 mg/kg/injection, schedule: Q04DX002 (ip), vehicle: saline with Tween-80
[12] = dose: 200.0 mg/kg/injection, schedule: Q04DX002 (ip), vehicle: saline with Tween-80

Measured: T/C

COC1C(O)CC(=O)OC(C)C/C=C/C=C/C(OC2CCC(N(C)C)C(C)O2)C(C)CC(CC=O)C1OC1OC(C)C(OC2CC(C)(O)C(O)C(C)O2)C(N(C)C)C1O (stereo not given)
inactive: dose: 6.3 mg/kg/injection, schedule: Q03HX024 (ip), vehicle: saline 100 % of control | dose: 12.5 mg/kg/injection, schedule: Q03HX008 (ip), vehicle: saline 100 % of control | dose: 12.5 mg/kg/injection, schedule: Q03HX024 (ip), vehicle: saline 100 % of control | dose: 25.0 mg/kg/injection, schedule: Q03HX008 (ip), vehicle: saline 97 % of control | dose: 25.0 mg/kg/injection, schedule: Q03HX024 (ip), vehicle: saline 101 % of control | [1] 98 % of control | dose: 50.0 mg/kg/injection, schedule: Q03HX008 (ip), vehicle: saline 100 % of control | dose: 50.0 mg/kg/injection, schedule: Q03HX024 (ip), vehicle: saline 103 % of control | dose: 100.0 mg/kg/injection, schedule: Q01DX001 (ip), vehicle: saline 102 % of control | [2] 96 % of control | dose: 100.0 mg/kg/injection, schedule: Q03HX008 (ip), vehicle: saline 97 % of control | [3] 98 % of control | dose: 200.0 mg/kg/injection, schedule: Q01DX001 (ip), vehicle: saline 98 % of control | dose: 200.0 mg/kg/injection, schedule: Q01DX009 (ip), vehicle: saline 102 % of control | [4] 100 % of control | dose: 400.0 mg/kg/injection, schedule: Q01DX001 (ip), vehicle: saline 106 % of control | dose: 400.0 mg/kg/injection, schedule: Q01DX009 (ip), vehicle: saline 98 % of control | [5] 100 % of control

CN=C(Nc1ccc(OC)c2ccccc12)SC
inactive: dose: 100.0 mg/kg/injection, schedule: Q04DX003 (ip), vehicle: Klucel (hydroxypropylcellulose) (HPC) 89 % of control | dose: 200.0 mg/kg/injection, schedule: Q04DX003 (ip), vehicle: Klucel (hydroxypropylcellulose) (HPC) 91 % of control

CCCCS(=O)(=O)C1CCCC1=O (stereo not given)
inactive: [6] 102 % of control | dose: 200.0 mg/kg/injection, schedule: Q04DX003 (ip), vehicle: saline with Tween-80 102 % of control | dose: 400.0 mg/kg/injection, schedule: Q04DX003 (ip), vehicle: saline with Tween-80 102 % of control

COc1c(O)ccc2c1CCCCC2=O
inactive: [7] 100 % of control | [8] 100 % of control | [9] 100 % of control

CSC1=NCCN1
inactive: [3] 97 % of control | [4] 97 % of control | [5] 91 % of control

CN1CC(=O)n2c(cc3ccccc32)C1=O
inactive: dose: 50.0 mg/kg/injection, schedule: Q04DX002 (ip), vehicle: saline 101 % of control | dose: 100.0 mg/kg/injection, schedule: Q04DX002 (ip), vehicle: saline 86 % of control | dose: 200.0 mg/kg/injection, schedule: Q04DX002 (ip), vehicle: saline 93 % of control | dose: 400.0 mg/kg/injection, schedule: Q04DX002 (ip), vehicle: saline 101 % of control

O=C1C(Cl)=C(Cl)C(=O)C(Cl)=C1Cl
inactive: [10] 101 % of control | [7] 102 % of control | [8] 98 % of control

O=C(O)C(O)(c1ccccc1)C1CCCC1 (stereo not given)
inactive: [9] 109 % of control | dose: 400.0 mg/kg/injection, schedule: Q01DX009 (ip), vehicle: saline with Tween-80 112 % of control

C[CH2][Pb]([Cl])([CH2]C)[CH2]C
inactive: dose: 1.56 mg/kg/injection, schedule: Q01DX009 (ip), vehicle: other 103 % of control | dose: 3.12 mg/kg/injection, schedule: Q01DX009 (ip), vehicle: other 100 % of control | dose: 6.25 mg/kg/injection, schedule: Q01DX009 (ip), vehicle: other 90 % of control

Clc1ccc(-c2ccncc2)cc1
inactive: [11] 101 % of control | [12] 108 % of control | dose: 400.0 mg/kg/injection, schedule: Q04DX002 (ip), vehicle: saline with Tween-80 103 % of control

O=C(O)c1cc2ccccc2cn1
inactive: [1] 108 % of control | [2] 95 % of control

COC(=O)C12OCC34C(CC5C(C)=C(O)C(=O)CC5(C)C3C(O)C1O)OC(=O)C(OC(=O)C=C(C)C)C24 (stereo not given)
inactive: dose: 125.0 micrograms/kg/injection, schedule: Q01DX009 (ip), vehicle: saline + alcohol 103 % of control | dose: 250.0 micrograms/kg/injection, schedule: Q01DX009 (ip), vehicle: saline + alcohol 100 % of control | dose: 500.0 micrograms/kg/injection, schedule: Q01DX009 (ip), vehicle: saline + alcohol 98 % of control | dose: 1000.0 micrograms/kg/injection, schedule: Q01DX009 (ip), vehicle: saline + alcohol 104 % of control | dose: 2000.0 micrograms/kg/injection, schedule: Q01DX009 (ip), vehicle: saline + alcohol 101 % of control | dose: 4000.0 micrograms/kg/injection, schedule: Q01DX009 (ip), vehicle: saline + alcohol 115 % of control

CC1(CC2SCCCS2)SCCCS1
inactive: dose: 25.0 mg/kg/injection, schedule: Q04DX002 (ip), vehicle: saline with Tween-80 96 % of control | dose: 50.0 mg/kg/injection, schedule: Q04DX002 (ip), vehicle: saline with Tween-80 93 % of control | [11] 96 % of control | [12] 86 % of control

O=C1c2ccccc2C(=O)c2c(NCCN3CCNCC3)ccc(NCCN3CCNCC3)c21
inactive: dose: 4.0 mg/kg/injection, schedule: Q01DX009 (ip), vehicle: acid diluted with saline 100 % of control | dose: 8.0 mg/kg/injection, schedule: Q01DX009 (ip), vehicle: acid diluted with saline 102 % of control | dose: 16.0 mg/kg/injection, schedule: Q01DX009 (ip), vehicle: acid diluted with saline 106 % of control | dose: 32.0 mg/kg/injection, schedule: Q01DX009 (ip), vehicle: acid diluted with saline 104 % of control

CCCCCCCCCCCCCCCCCCN1CCOCC1
inactive: dose: 12.5 mg/kg/injection, schedule: Q01DX009 (ip), vehicle: saline with Tween-80 94 % of control | [10] 102 % of control | [7] 94 % of control

CC(/C=N/N(C)C)=N\N(C)C
inactive: [1] 108 % of control | [2] 96 % of control

Cc1cc(C)n(C(=S)[S-])n1.Cc1cc(C)n(C(=S)[S-])n1.[Pt+2]
inactive: dose: 25.0 mg/kg/injection, schedule: Q04DX003 (ip), vehicle: saline with Tween-80 90 % of control | dose: 50.0 mg/kg/injection, schedule: Q04DX003 (ip), vehicle: saline with Tween-80 90 % of control | [6] 105 % of control

CCCCCCCCCCCCCCCC(=O)N(CCCN(CC)CC)C(C)CCCN(CC)CC (stereo not given)
inactive: dose: 1.56 mg/kg/injection, schedule: Q01DX009 (ip), vehicle: water 102 % of control | dose: 3.13 mg/kg/injection, schedule: Q01DX009 (ip), vehicle: water 100 % of control | dose: 6.25 mg/kg/injection, schedule: Q01DX009 (ip), vehicle: water 96 % of control

Cc1nc(N)[nH]c(=O)c1CCCN
inactive: [3] 95 % of control | [4] 98 % of control | [5] 95 % of control

Nc1ccc(Br)cc1-c1nc(N)c2cc(Br)ccc2n1
inactive: dose: 50.0 mg/kg/injection, schedule: Q01DX009 (ip), vehicle: Klucel (hydroxypropylcellulose) (HPC) 104 % of control | dose: 100.0 mg/kg/injection, schedule: Q01DX001 (ip), vehicle: Klucel (hydroxypropylcellulose) (HPC) 93 % of control | dose: 100.0 mg/kg/injection, schedule: Q01DX009 (ip), vehicle: Klucel (hydroxypropylcellulose) (HPC) 89 % of control | dose: 200.0 mg/kg/injection, schedule: Q01DX001 (ip), vehicle: Klucel (hydroxypropylcellulose) (HPC) 103 % of control | dose: 200.0 mg/kg/injection, schedule: Q01DX009 (ip), vehicle: Klucel (hydroxypropylcellulose) (HPC) 100 % of control | dose: 400.0 mg/kg/injection, schedule: Q01DX001 (ip), vehicle: Klucel (hydroxypropylcellulose) (HPC) 100 % of control
